Patent publication US12441763B2, “Hangtaimycin derivatives and their preparation methods and application” (WUHAN UNIVERSITY, priority 2022, dated 2025)
Numbered stars: 1 amine (or outer) side, 2 acyl side, 3 side chain; on linkers, the order of the positions; unused ones are H or OH. Square brackets hold non-standard residues; d marks the D form. Peptide text beside a SMILES is read from it. * marks the point of attachment. X3 = O=C1C=C(CCC/C=C/C=C/C(=O)[*:2])CC(C(O)N[*:1])O1; X4 = O=C1C=C(CCC/C=C/C=C/C(=O)[*:2])CC(CN[*:1])O1; NMeW = CN[CH](Cc1c[nH]c2ccccc12)C(=O)O; X2 = C/C(=C\C(C)N[*:1])C(=O)[*:2]; Dhb = C/C=C(\N)C(=O)O; X1 = C/C=C/C=C\C(=O)*; Dha = C=C(N)C(=O)O

What was measured:
renal cancer = test: Antitumor activity, MTT cell viability, renal cancer; assay type: cell-based; conditions: […], 24 hours, P<0.01
Experimental: (§1) In a 96-well microplate, 100 μL of culture medium was put in each well and inoculate four cell strains with a fusion degree of 80% at a density of 8×10^3 cells. Cells were grown at 37° C., CO2 (5%) and air (95%). Each 96-well plate was placed with a concentration gradient of 0˜100 μg/mL of test compounds HTM, HTMA, HTMB, and HTMP. After 24 hours of incubation, the medium was removed, and 0.5 mg/mL MTT solution was added to each medium with cells and continue to incubate the cells for 4 hours at 37° C. Then 100 μL of DMSO was added to dissolve formazan crystals. Finally, absorbance was measured at 570 nm using a microplate reader (Bioteck EON, USA). The viability of the cells was calculated as the percentage of cell viability compared to vehicle control-treated cells, which were arbitrarily assigned as 100% viability. Each independent experiment was repeated five times. (*P<0.05, **P<0.01, ***P<0.001)

[1] = system: cocaine reward memory reconsolidation; test: Drug reward memory reconsolidation, cocaine; assay type: in vivo, SD rats; conditions: 3 mg/kg i.p. after exposure to drug-paired box; group IV vs group III; 7th day after reward memory activation; P<0.05
Experimental: (§2) Drug reward memory reconsolidation: Morphine, an opioid representative, and cocaine, a euphoric representative, were used to establish model addiction. On the first day, baseline was assessed by placing the rats in the center compartment of the CPP apparatus and allowing ad libitum access to all compartments for 15 minutes. And then, male SD rats were divided into the saline+morphine group, the HTMB (3 mg/kg)+morphine group, the saline+cocaine group, and the HTMB (3 mg/kg, i.p.)+cocaine group. The rats were exposed to CPP training from day 2 to 9. On the 10th day, the channel between the three boxes was opened, and the rats were allowed to move freely in the three boxes for 15 minutes for the CPP test. On the 11th day, the CPP expressing rats screened for CPP formation were divided into four groups: the group I (morphine+saline), the group II (morphine+3 mg/kg HTMB), the group III (cocaine+saline), and the group IV (cocaine+3 mg/kg HTMB). After exposure to drug-paired box for 10 minutes, groups I and III were injected with saline (1 ml/kg, i.p.), and the groups II and IV were injected with HTMB (3 mg/kg, i.p.). 24 hours after injection, we defined this as 1 day of activation of the reward memory. The CPP scores were measured on the 7th day after reward memory activation.

[2] = Antioxidant activity, DPPH free radical scavenging; assay type: biochemical; conditions: 1~50 μg/mL, 0.1 mM DPPH, absorbance at 517 nm
Experimental: In this experiment, a 0.1 mM DPPH solution was prepared with ethanol, and each sample solution/dispersion was separately mixed with the DPPH solution in order to dilute it into a reaction product with a concentration gradient of 1˜50 μg/mL to evaluate the concentration-dependent antioxidant potential. The reaction product was measured for its absorbance (AS) at 517 nm using an ultraviolet-visible spectrophotometer, and its antioxidant activity was measured using DPPH removal as an indicator. The percentage of DPPH free radical scavenging is calculated by the following formula: […]
AS is the absorbance of the sample and A0 is the absorbance of the control (only DPPH solution).

bladder cancer = test: Antitumor activity, MTT cell viability, bladder cancer; assay type: cell-based; conditions: 50 μg/mL, 24 hours, P<0.01
Experimental: as §1

breast cancer = test: Antitumor activity, MTT cell viability, breast cancer; assay type: cell-based; conditions: 50 μg/mL, 24 hours
Experimental: as §1

[3] = system: morphine reward memory reconsolidation; test: Drug reward memory reconsolidation, morphine; assay type: in vivo, SD rats; conditions: 3 mg/kg i.p. after exposure to drug-paired box; group II vs group I; 7th day after reward memory activation; P<0.05
Experimental: as §2

[4] = system: carrageenan-induced paw inflammation; test: Anti-inflammatory effect in inflammatory model induced by carrageenan (paw); assay type: in vivo, Kunming mice; conditions: 10 mg/mL; for right hind foot thickness: 10 μL subcutaneous into right hind paw, 4 hours after carrageenan injection, vs carrageenan+solvent group
Experimental: Male Kunming mice weighing 18˜22 g were adaptively reared for 1 day, and then randomly divided into […] (5˜6 mice per group): the saline+solvent group, the saline+HTM group, the saline+HTMP group, the saline+HTMA group, the saline+HTMB group, the saline+rapamycin (250 nM) group, the carrageenan+solvent group, the carrageenan+HTM group, the carrageenan+HTMP group, the carrageenan+HTMA group, the carrageenan+HTMB group, and the carrageenan+rapamycin (250 nM) group. Where doses used for HTM, HTMP, HTMA, and HTMB were set at 1, 3, and 10 mg/mL, and their solutions all contained 5% DMSO. Experiments were designed based on previous studies (Zhang et al., 2018). Carrageenan was used to induce paw inflammation, and the experimental procedure was as follows:
(1) The thickness of the right hind foot of mice was measured with a vernier caliper before the experiment, and the measurement site was marked.
(2) The experimental group was then subcutaneously injected into the right hind paw with 10 μL of different concentrations of compound solutions. The control group was injected with 10 μL saline into the right hind paw.
(3) After administration, the carrageenan group was injected subcutaneously with 30 μL of 1% carrageenan solution into the right hind paw, and the other groups were injected with an equal volume of saline. The thickness of the right hind foot of each mouse was measured at the same site every 1 hour for the following 4 hours to observe the effect of the compounds on the change in foot thickness.

[5] = system: alpha-naphthyl isothiocyanate-induced liver injury; test: Animal assay for hepatoprotective activity, alpha-naphthyl isothiocyanate-induced liver injury; assay type: in vivo, Wistar rats
Experimental: Male Wistar rats weighing around 220 g were randomly divided into 7 groups with 12 rats in each group. After grouping, they were fed a standard diet under standard conditions and were orally gavaged continuously. The dosages of the positive control groups obeticholic acid and silymarin were 10 mg/kg and 5 mg/kg respectively. The HTMA group was divided into low, medium, and high-dose groups with doses of 2.5, 5, and 10 mg/kg. The control and model groups were orally gavaged with 0.5% sodium carboxymethyl cellulose (solvent) daily. After 7 days of gavage, the rats fasted for 12 hours. On the 8th day, their weight was measured, and all rats except for the control group were intraperitoneally injected with alpha-naphthyl isothiocyanate (50 mg/kg, dissolved in olive oil) to induce liver injury. The rats in the control group were intraperitoneally injected with the same amount of olive oil. After two more days of gavage and 12 hours of fasting, blood samples were taken to detect biochemical indicators reflecting the degree of liver cell damage (FIGS. 27A˜27C) and bile stasis (FIGS. 28A˜28E), and liver immunohistochemical detection was performed (FIGS. 29A, 29B and 30A˜30F).

HepG2 cells [6] = test: Cellular assay for hepatoprotective activity, CCl4-induced liver injury cell model; assay type: cell-based; conditions: compared with the CCl4 group; HepG2 cell homogenates
Experimental: HepG2 cells were seeded into 24-well plates and kept at 37° C. in 5% CO2 in order to achieve 80% fusion. To evaluate the effects of HTMA, HTMB, and HTMP on aspartate aminotransferase (AST) and alanine aminotransferase (ALT) activity, and compare the results with those of Silymarin (positive control) (FIG. 26), a cellular assay for hepatoprotective activity was carried out using a CCl4-induced liver injury cell model. The cells were treated with the compounds followed by ultrasound disruption and cell homogenization to prepare the cell homogenates for analysis.

HepG2 cells [7] = test: Protection of the cell membrane of HepG2 after CCl4 injury (DiO/DAPI confocal imaging); assay type: cell-based; conditions: HTMA pre-treatment 12 hours, then 70% CCl4 injury fluid 1 hour; vs model group
Experimental: Well-growing HepG2 cells were plated into confocal dishes with 1 mL of cell suspension containing 5×10^5 cells per dish. After 24 hours of incubation, pre-treat the cells with HTMA for 12 hours. The culture medium was removed from the confocal dish, then phenol red-free DMEM medium was added to the control group, 70% CCl4 injury fluid was added to the model and treatment groups. The dishes were placed in a 37° C. incubator for 1 hour to induce liver injury. After modeling, the culture medium was removed, the cells were rinsed with PBS, and fixed with 4% paraformaldehyde at room temperature for 10 minutes. Then the cells were rinsed with PBS three times, each time for 5 minutes. 10 μM DiO was added to the dish and stained the cells at room temperature for 30 minutes. Then the cells were rinsed with PBS three times, each time for 5 minutes. DAPI was dropped to counterstain the cell nucleus, incubating it in the dark for 30 minutes, and then the cells were rinsed with PBS three times. The images of the cells were captured using a laser scanning confocal microscope (Leica TCS SP8). The experimental design includes two positive controls: silymarin(S) and obeticholic acid (OBC).

[8] = system: acute inflammatory visceral pain caused by acetic acid; test: Writhing test (acetic acid); assay type: in vivo, Balb/c mice; conditions: 30 minutes before 0.6% acetic acid i.p., counted within 20 minutes, vs solvent group, P<0.05
Experimental: The writhing test: Male Balb/c mice weighting 18˜22 g were randomly divided into four groups (9˜10 per group): the vehicle group (DMSO:saline=1:4, 1 ml/kg), the HTMB (1 mg/kg) group, the HTMB (3 mg/kg) group, and the HTMB (10 mg/kg) group. After tail vein administration for 30 minutes, mice were injected intraperitoneally with 10 mL/kg of freshly prepared 0.6% acetic acid (Rediet Tesfaye, et al. 2020), and the number of body twists of mice was observed and recorded within 20 minutes.

morphine-induced CPP = test: Conditioned place preference (CPP) experiments; assay type: in vivo, SD rats; conditions: HTMB 3 mg/kg + morphine vs saline + morphine; test on the 10th day; P<0.05
Experimental: Conditioned place preference (CPP) experiments: Morphine, an opioid representative, and cocaine, a euphoric representative, were used to establish a model of addiction. On the first day, the baseline was assessed by placing the rats in the center compartment of the CPP apparatus and allowing ad libitum access to all compartments for 15 minutes. And then, male SD rats were divided into the saline+morphine group, the HTMB (3 mg/kg)+morphine group, the saline+cocaine group, and the HTMB (3 mg/kg, i.p.)+cocaine group. The rats were exposed to CPP training from day 2 to 9. On the 10th day, the channel between the three boxes was opened, and the rats were allowed to move freely in the three boxes for 15 minutes for the CPP test.

[9] = high-dose HTMA (HH) 10 mg/kg, oral gavage, vs liver injury model group, blood

Compound: C=C(NC(=O)/C=C\C=C\CCCC1=CC(=O)OC(C(O)NC(=O)C(C)=CC(C)NC(=O)/C=C\C=C\C)C1)C(=O)NC(C(=O)N1C(=O)[C@@H](Cc2c[nH]c3ccccc23)N(C)C(=O)/C1=C/C)C(C)OC (stereo partly shown) [HTM, Hangtaimycin]
- survival rate of renal cancer (renal cancer): significantly inhibited
- CPP scores, cocaine reward memory reconsolidation [1]: inhibit
- antioxidant capacity (DPPH free radical scavenging) [2]: have antioxidant capacity
- survival rate of bladder cancer (bladder cancer): significantly inhibited
- survival rate of breast cancer (breast cancer; P<0.05): significantly inhibited
- CPP scores, morphine reward memory reconsolidation [3]: inhibit

Compound: C=C(NC(=O)/C=C/C=C/CCCC1=CC(=O)OC(C(O)NC(=O)/C(C)=C/C(C)NC(=O)/C=C\C=C\C)C1)C(=O)NC(C(=O)N/C(=C\C)C(=O)N(C)C(Cc1c[nH]c2ccccc12)C(=O)OC)C(C)OC (stereo not shown) [HTMA, Hangtaimycin A] (X1-[X2][X3][Dha]T(Me)[Dhb][NMeW]-OMe; configuration not given here)
- right hind foot thickness ([4]; P<0.05): reduced
- antioxidant capacity (DPPH free radical scavenging) [2]: does not
- survival rate of bladder cancer (bladder cancer): significantly inhibited
- effects on other biochemical indicators relative to high-dose HTMA ([5]; 2.5 mg/kg oral gavage (HTMA low dose LH)): weaker
- LDH levels ([5]; 2.5 mg/kg oral gavage (HTMA low dose LH), vs liver injury model group): significantly reduced
- effects on other biochemical indicators relative to high-dose HTMA ([5]; 5 mg/kg oral gavage (HTMA medium dose MH; silymarin)): weaker
- LDH levels ([5]; 5 mg/kg oral gavage (HTMA medium dose MH; silymarin), vs liver injury model group): significantly reduced
- levels of LDH ([5]; 10 mg/kg oral gavage (HTMA high dose HH; obeticholic acid), vs liver injury model group): significantly reduce
- pathological conditions of liver tissue damage (liver tissue staining) ([5]; all doses of HTMA (2.5, 5, 10 mg/kg oral gavage), vs liver injury model group): therapeutic effect
- levels of ALP [5, 9]: significantly reduce
- levels of ALT [5, 9]: significantly reduce
- levels of AST [5, 9]: significantly reduce
- levels of GGT [5, 9]: significantly reduce
- levels of TBA [5, 9]: significantly reduce
- levels of TBIL [5, 9]: significantly reduce
- ALT levels (HepG2 cells [6]): significantly reduced
- AST levels (HepG2 cells [6]): significantly reduced
- cell membrane morphology (DiO fluorescence) (HepG2 cells [7]): protective effect on the cell membrane
- survival rate of breast cancer (breast cancer; P<0.01): significantly inhibited

Compound: C=C(NC(=O)/C=C/C=C/CCCC1=CC(=O)OC(CNC(=O)/C(C)=C/C(C)NC(=O)/C=C\C=C\C)C1)C(=O)NC(C(=O)N/C(=C\C)C(=O)N(C)C(Cc1c[nH]c2ccccc12)C(=O)OC)C(C)OC (stereo not shown) [HTMB, Hangtaimycin B] (X1-[X2][X4][Dha]T(Me)[Dhb][NMeW]-OMe; configuration not given here)
- survival rate of renal cancer (renal cancer): significantly inhibited
- improvement of the inflammation caused by carrageenan, comparison among HTMP, HTMA and HTMB [4]: best results
- right hind foot thickness ([4]; P<0.05): reduced
- number of leukocytes per unit area (HE staining) ([4]; carrageenan+HTMB group vs carrageenan+solvent group, P<0.05): statistical difference
- antioxidant capacity (DPPH free radical scavenging) [2]: have antioxidant capacity
- survival rate of bladder cancer (bladder cancer): significantly inhibited
- ALT levels (HepG2 cells [6]): significantly reduced
- AST levels (HepG2 cells [6]): significantly reduced
- survival rate of breast cancer (breast cancer; P<0.05): significantly inhibited
- number of body twists ([8]; 3 mg/kg tail vein): significantly lower
- number of body twists ([8]; 10 mg/kg tail vein): significantly lower
- CPP scores, morphine-induced CPP (morphine-induced CPP): inhibit
